For 90 compounds, melting point results are on record in a melting point compilation (Tetko et al.; mined from patent text by program, amines drawn as free bases though some values may be those of a salt).

Some results are limits rather than exact numbers.

In the case of `O=C1CN(C(=O)OCC2c3ccccc3-c3ccccc32)CC(=O)O1`, the melting point (commonly the temperature, or range, at which the solid turns liquid) is 180 to 185 °C.

As to `CCCCCc1ccc(-c2ccc(CCC3(C#N)CCCC(C)C3)cc2)cc1` (stereo not given), the melting point stood at 73 °C.

`N#CC(C(=O)c1ccncc1)c1ccc(F)cc1` (stereo not given) gave a melting point of 230 to 232 °C.

Take `CC(C)(N)c1ccc(-c2nc(Nc3ccc(F)cc3F)ncc2C#N)cc1`: the melting point is 203 °C.

For `O=C(/C=C/c1ccccc1Sc1ccc(Cl)cc1Cl)NCCCCO`, the melting point was 68 to 71 °C.

`COc1cccc2c1CC(NC(=O)C(C)C)CC2` (stereo not given): the melting point is 167 to 168 °C.

With `COc1ccc(Nc2ccncc2)cc1`, the melting point lay in the range of 129 to 134 °C.

On to `Cc1ccc(C(=O)CCCOC(=O)Nc2ccccc2)cc1`, for which the melting point fell in the range of 106 to 109 °C.

For `COc1cc(Nc2nccc(-c3cc(OC)c(OC)c(OC)c3)n2)cc(OC)c1OC`, the melting point stood at 187 °C.

`CC(C)N(C(=O)CN1C(=O)CC(=O)N(c2ccccc2)c2ccccc21)c1ccccc1` showed a melting point of 199 to 200 °C.

As to `Nc1ccc2c(c1)C(=O)N(CCO)CCO2`, the melting point was 138 °C.

`CCCCCCCCCCc1ccc(C(=O)N(O)CCCC(=O)O)cc1` showed a melting point of 98 to 100 °C.

Turning to `CCOC(=O)N1CCC(NC(=S)Nc2cc(Cl)ccc2NCc2ccccc2)CC1`, the melting point stood at 162 °C.

`CCCCCCCCCCc1ccc2cc(O)c(SC)cc2c1`: the melting point lay within 65.5 to 66 °C.

In turn, `Cc1nc(/C=C/c2cn(-c3ccccc3)nc2O)cs1` registered a melting point of 211 to 212 °C.

In turn, `Nn1c(C(F)(F)F)cc(=O)n(-c2cc(Oc3ncccc3[N+](=O)[O-])c(Cl)cc2F)c1=O` came in with a melting point of 90 to 96 °C.

In the case of `CCC1NC(=O)N(C)C(=O)N1`, the melting point was in the range of 202 to 203 °C.

In turn, `COc1ccc(-c2nc(Sc3ccc(C)cc3)n(C3CCCCO3)c2-c2ccc(OC)cc2)cc1` (stereo not given) came in with a melting point of 192 °C.

`Fc1ccc2[nH]cc(CCCN3CCN(c4cccc(Cl)c4Cl)CC3)c2c1` gave a melting point of 147 to 148 °C.

Turning to `Cc1ccc2c(c1)C(=O)N(Nc1ccccc1)C2=O`, the melting point is 168 to 170 °C.

Compound `CC(=Cc1ccc(-c2noc3cc(Cl)ccc23)cc1)[N+](=O)[O-]` returned a melting point of 160 to 162 °C.

On to `CCOC(=O)C(Cc1ccc(C(F)(F)F)c(F)c1)C(=O)c1ccc(F)cc1` (stereo not given), for which the melting point lay within 56 to 57 °C.

With `CCc1c2nc(-c3cc(S(C)(=O)=O)ccc3OCC(C)C)[nH]c(=O)c2nn1Cc1ccccn1`, the melting point lay within 235 to 238 °C.

`CC(C)(C)c1cccc2nc(C(F)(F)F)[nH]c12` registered a melting point of 149 to 152 °C.

Turning to `O=S(=O)(c1ccccc1)N1CCCCC1CSc1ccc(Cl)cc1` (stereo not given), the melting point was 78.5 to 80 °C.

For the compound `Cc1nc(C)c(Cl)c(NCc2ccc(OCCn3c([N+](=O)[O-])cnc3C)c(Cl)n2)n1`, the melting point lay within 206 to 208 °C.

The compound `CCC(C)C(CN[C@@H](Cc1ccccc1)C(=O)OCc1ccccc1)NC(=O)OC(C)(C)C` (stereo not given in full) returned a melting point of 53 to 55 °C.

On to `CCOC(=O)c1c(N2CCN(C(=O)c3cccs3)CC2)c2cnccc2[nH]c1=O`, for which the melting point is 231 °C.

In the case of `CC(=O)OC1CSC(Oc2cnc(-c3ccncc3)c(Cl)c2)C(OC(C)=O)C1OC(C)=O` (stereo not given), the melting point turned out to be 153 °C.

In turn, `CCOC(=O)c1cnc2sc3c(n12)CCCC3` returned a melting point of 75 to 76 °C.

As to `CCc1nnc(-c2cccc(N(C)C)c2)n1-c1ccc(OC)cc1`, the melting point is 170 °C.

`Nc1sc2c(c1C(=O)c1cccs1)CCN(Cc1ccccc1)C2`: the melting point lay in the range of 122 to 123 °C.

`CC(C)(NC(=O)C(CS)NC(=O)c1ccccc1)c1ccccc1` (stereo not given) yielded a melting point of 169 to 173 °C.

Consider `NC1CCCN(C(=O)c2ccc(NC(=O)c3ccccc3Cl)cc2)c2ccccc21` (stereo not given), for which the melting point was in the range of 176 to 178 °C.

`COCCc1nc(Cl)c(CO)[nH]1` returned a melting point of 91 to 95 °C.

In turn, `O=C1Nc2cccnc2N(C(=O)NCCN2CCC(CCCN3CCCCC3)CC2)c2ccccc21` had a melting point of 192 to 193 °C.

Compound `CN1Cc2c(n(-c3ccc(F)cc3)c3ccc(F)cc23)C1` had a melting point of 160 to 165 °C.

For the compound `CCCCCCCCCCCCCCOc1ccc(CCNC(=O)Cc2cccc(CBr)c2)cc1`, the melting point lay in the range of 75 to 77 °C.

Compound `O=C1OCCN1CCCC(c1cc(F)ccc1F)S(=O)(=O)c1ccc(Cl)cc1` (stereo not given) had a melting point of 156 to 159 °C.

Regarding `CC(=O)OC(COc1ccc(C(=O)O)c(O)c1)c1ccc2c(c1)C(C)(C)CCC2(C)C` (stereo not given), the melting point was in the range of 160 to 161 °C.

As for `C1=CC2=NC=NC23CCNCC3N1` (stereo not given), the melting point lay within 94 to 95 °C.

`CCCCc1ncc(/C=C(\Cc2cccs2)C(N)=O)n1Cc1ccccc1[N+](=O)[O-]` had a melting point of 183 to 185 °C.

For `COc1ccc(Nc2cc([N+](=O)[O-])ccc2C)c(C(=O)O)c1`, the melting point fell in the range of 219 to 221 °C.

The compound `CCCn1ncnc1COc1nn2c(-c3ccccc3)nnc2cc1-c1ccccc1` showed a melting point of 211 to 213 °C.

`COc1cc(OC)cc(-c2nc[nH]c2-c2ccc(OC)c(N)c2O)c1` displayed a melting point of 132 to 134 °C.

`C=C(C)COc1ccc(OC)cc1-c1nc2ccccc2[nH]1` returned a melting point of 144 to 148 °C.

The compound `CCOC(=O)c1cc2c(C)ccc(OCCO)c2[nH]1` came in with a melting point of 166 to 167 °C.

As to `CC(C)(C)OC(=O)NNC(=O)Cc1nc2cc(F)c(N3CCN(C(=O)OC(C)(C)C)CC3)cc2n1C1CC1`, the melting point lay within 202 to 203 °C.

`COC(=O)C1=C(C)N=C(OC)N(C(=O)Oc2ccc([N+](=O)[O-])cc2)C1c1ccc(F)c(F)c1` (stereo not given) had a melting point of 172 to 174 °C.

On to `COc1ccc2c(c1)CCC(c1ccncc1)O2` (stereo not given), for which the melting point lay in the range of 88 to 91 °C.

The compound `CCC(=O)Nc1ccc(-c2ccnc3c(C(=O)c4ccccc4)cnn23)cc1` yielded a melting point of 211 to 213 °C.

`COCCOc1ccc(-c2nc(C(=O)Nc3nccs3)c(-c3ccc(Cl)cc3)[nH]2)cc1` displayed a melting point of 147 to 148 °C.

Consider `Cc1ccc(-n2c(-c3sc(Nc4ccc(Cl)cc4)nc3-c3ccccc3)nc3ccccc3c2=O)cc1`, for which the melting point was above 275 °C.

With `CN1CCC(=C2c3ccccc3COc3ccc(C(=O)O)cc32)CC1`, the melting point fell in the range of 205 to 210 °C.

As to `COC(=O)Nc1nc2cc(C(c3ccc(F)cc3)n3cncn3)ccc2[nH]1` (stereo not given), the melting point was determined as 250 °C.

Consider `CN1CCN(Cc2cccc(OCc3ccc4ccccc4n3)c2)CC1`, for which the melting point is 47 to 49 °C.

`Cc1cc(C)c2c(c1C)OCC2=O` had a melting point of 92 to 93 °C.

`CCCC12CCC3C4CCC(=O)C=C4CCC3C1CCC2(O)CC` (stereo not given) registered a melting point of 93 to 95 °C.

In turn, `N#CC(OC1CCCCO1)c1ccc(Cl)c(Cl)c1` (stereo not given) yielded a melting point of 61 °C.

As for `O=C1CCCN1S(=O)(=O)c1ccc2ccccc2c1`, the melting point was in the range of 118 to 120 °C.

`CC1(C)Oc2ccc(C#N)cc2[C@@H](NC2=C(Cl)C(=O)CC2)[C@@H]1O` (relative stereo) had a melting point of 288 to 289 °C.

Turning to `CC(C)(C)COC(=O)N1CC2CC(CN(CC(O)COc3ccc(C#N)cc3)C2)C1` (stereo not given), the melting point was in the range of 146 to 147 °C.

In turn, `CC1=N/C(=C\c2c[nH]c3ncccc23)C(=O)N1Cc1ccccc1` had a melting point of 274 to 275 °C.

Take `CCCOC(=O)C(N)C=CCP(=O)(O)O` (stereo not given): the melting point lay within 161 to 162 °C.

As for `CCOP(=O)(CC(=O)Nc1cc2c(Nc3ccc(OCc4cccc(Cl)c4)c(Cl)c3)ncnc2cn1)OCC`, the melting point fell in the range of 106 to 109 °C.

Take `O=[N+]([O-])c1c(Cl)c(Cl)cc2nc(Cl)c(Cl)nc12`: the melting point fell in the range of 118 to 120 °C.

`CCOC(=O)c1ncc2[nH]c3ccc(-n4cccc4)cc3c2c1C` gave a melting point of 214 to 217 °C.

The compound `CC(C)NCC(O)COc1cccc(C2=NNC(=O)CC2)c1` (stereo not given) gave a melting point of 137 to 141 °C.

`COc1ccc(-c2cc(=S)n(Cc3ccc(F)cc3F)nc2-c2ccc(OC)cc2)cc1` returned a melting point of 175 to 176 °C.

`O=C(O)c1ccc2c(c1)Cc1ccccc1O2` showed a melting point of 298 to 299 °C.

As for `Cc1nc(CO)c2n1-c1ccc(Cl)cc1C(c1ccccc1Cl)=NC2`, the melting point was 215 to 217 °C.

Consider `CCCc1c(OCCCCCc2nnn[nH]2)ccc(C(C)=O)c1O`, for which the melting point lay in the range of 95 to 96 °C.

`COC(=O)Cc1cc(Oc2nn(C)c(C(F)(F)F)c2Cl)ccc1[N+](=O)[O-]` came in with a melting point of 112 to 115 °C.

`CC1(C)CNC(=S)NC1` displayed a melting point of 225 to 228 °C.

The compound `Cn1c2ccc(-c3nnn[nH]3)cc2c(=O)c2cc(-c3nnn[nH]3)ccc21` had a melting point above 400 °C.

`CC(=O)NC[C@H]1CN(c2ccc(C3=CCCN(C(=O)CO)C3)c(F)c2)C(=O)O1` displayed a melting point of 188 to 190 °C.

As to `CNc1cc(NS(=O)(=O)c2cccc(Cl)c2)nc(NC)n1`, the melting point lay within 167 to 168 °C.

`CCOC(=O)c1cnoc1-c1ccc2c(c1)OCO2` displayed a melting point of 73 to 74 °C.

`Nc1ccc(CO)c(Nc2nccc(-c3cccnc3)n2)c1` returned a melting point of 213 to 215 °C.

Consider `CNC(C(=O)NC(N)=O)C(=S)c1cccc2c(C(F)(F)F)c(OC)ccc12` (stereo not given), for which the melting point lay within 203 to 204 °C.

Take `CC(CI)CCCC(C)C1CC=C2C3=C(CCC21C)C1(C)CCC(O)C(C)(C)C1CC3` (stereo not given): the melting point came out at 148 °C.

For the compound `CCN1C(=O)C(C)(C)C(=O)N(C)c2cc(CN(CCn3ccc4oc(C)cc4c3=O)Cc3cccnc3)ccc21`, the melting point fell in the range of 124 to 127 °C.

Take `O=C(O)CCCNc1nc2ccccc2c(=O)o1`: the melting point fell in the range of 147 to 148 °C.

For the compound `CCCOc1nc(O)ns1`, the melting point stood at 92 °C.

Compound `COc1ccc(C2=CCC(C#N)CC2)c2c1OCCO2` (stereo not given) yielded a melting point of 79 °C.

`Cc1ccc(C2OCCn3ccc(=O)c(O)c32)cc1` (stereo not given) yielded a melting point of 210 to 218 °C.

In turn, `O=C1CCN(Cc2ccc3ccccc3n2)CC1C(c1ccc(F)cc1)c1ccc(F)cc1` (stereo not given) came in with a melting point of 188 to 189 °C.

Regarding `Cc1nc2c(O)cc(C(=O)N(C)C)cc2n1COCC[Si](C)(C)C`, the melting point was in the range of 150 to 151 °C.

`CC(NC(=O)NCCCCC1CCSS1)C(=O)NS(N)(=O)=O` (stereo not given) came in with a melting point of 156 to 157 °C.

In turn, `CC1=NC(NC(=O)Nc2cccc(C)c2)C(=O)N(CC(=O)C2CCCCCCC2)c2c(C)cccc21` (stereo not given) returned a melting point of 163 to 164 °C.
